The source of these data is patent publication US20160297833A1, “THIENOPYRIMIDINES AS MKNK1 AND MKNK2 INHIBITORS” (BAYER PHARMA AKTIENGESELLSCHAFT, priority 2013, published 2016).

T1 sequence (Q9BUB5 1-424 isoform Q9BUB5-2 T344D): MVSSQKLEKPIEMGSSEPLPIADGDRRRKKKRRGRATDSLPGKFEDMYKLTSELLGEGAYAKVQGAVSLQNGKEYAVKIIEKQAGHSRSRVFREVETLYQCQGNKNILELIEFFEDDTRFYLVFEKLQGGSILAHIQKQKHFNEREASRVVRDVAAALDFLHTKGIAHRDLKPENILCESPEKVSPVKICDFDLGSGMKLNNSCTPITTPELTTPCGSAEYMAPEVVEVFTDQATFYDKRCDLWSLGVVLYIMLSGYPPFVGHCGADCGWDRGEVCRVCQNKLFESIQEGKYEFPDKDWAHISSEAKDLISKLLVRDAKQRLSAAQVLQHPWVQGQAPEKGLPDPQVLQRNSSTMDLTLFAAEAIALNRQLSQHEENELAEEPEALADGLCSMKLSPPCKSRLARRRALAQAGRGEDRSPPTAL

One experiment addresses T1, human full-length MKNK1 (Homo sapiens, UniProt Q9BUB5, T385D).
T1 construct: GST (N); purchased Carna Biosciences 02-145; host or cells: insect cells (baculovirus expression system)
The experiment in a line: MKNK1 kinase high ATP assay (TR-FRET). It counts as biochemical. The conditions noted are these: Table 1; MKNK1 kinase high ATP assay, 2 mM ATP; read-out: MKNK1 IC50. In a few lines: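 Full-length human MKNK1 (T385D) preincubated 15 min at 22 °C with compound in HEPES pH 7.5/MgCl2/DTT buffer; reaction with 2 mM ATP (final) and 0.06 μM biotinylated peptide (final), 30 min at 22 °C.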
On the technique in general: In TR-FRET formats the signal depends on donor and acceptor labels being close together.
On to `C[C@@H]1COCCN1C(=O)[C@H]1CCc2c(sc3ncnc(Nc4cc5cn[nH]c5cc4N4CCCC4)c23)C1` [Example 184, [(3R)-3-Methylmorpholin-4-yl][(7S)-4-{[6-(pyrrolidin-1-yl)-1H-indazol-5-yl]amino}-5,6,7,8-tetrahydro[1]benzothieno[2,3-d]pyrimidin-7-yl]methanone], for which the IC50 worked out at 0.4 nM.
On to `CCCN(C)C(=O)[C@H]1CCc2c(sc3ncnc(Nc4cc5cn[nH]c5cc4N4CCC(N(C)C)CC4)c23)C1` [Example 156, (7S)-4-({6-[4-(Dimethylamino)piperidin-1-yl]-1H-indazol-5-yl}amino)-N-methyl-N-propyl-5,6,7,8-tetrahydro[1]benzothieno[2,3-d]pyrimidine-7-carboxamide], for which the IC50 worked out at 10.7 nM.
For the molecule `CN(C)C1CCN(c2cc3[nH]ncc3cc2Nc2ncnc3sc4c(c23)CC[C@H](C(=O)N2CCC2)C4)CC1` [Example 132, Azetidin-1-yl[(7S)-4-({6-[4-(dimethylamino)piperidin-1-yl]-1H-indazol-5-yl}amino)-5,6,7,8-tetrahydro[1]benzothieno[2,3-d]pyrimidin-7-yl]methanone], the IC50 was found to be 27.2 nM.
On the same count and under the same terms, the figure for `CCON(C)C(=O)[C@H]1CCc2c(sc3ncnc(Nc4cc5cn[nH]c5cc4OC)c23)C1` [Example 214, (7S)—N-Ethoxy-4-[(6-methoxy-1H-indazol-5-yl)amino]-N-methyl-5,6,7,8-tetrahydro[1]benzothieno[2,3-d]pyrimidine-7-carboxamide] is 1.2 nM; for `CC(C)Oc1cc2[nH]ncc2cc1Nc1ncnc2sc3c(c12)CC[C@H](C(=O)N1CC2(COC2)C1)C3` [Example 88, 2-Oxa-6-azaspiro[3.3]hept-6-yl[(7S)-4-{[6-(propan-2-yloxy)-1H-indazol-5-yl]amino}-5,6,7,8-tetrahydro[1]benzothieno[2,3-d]pyrimidin-7-yl]methanone] it is 0.4 nM.
The same measure, in the same setting: next, `C[C@H]1COCCN1C(=O)[C@H]1CCc2c(sc3ncnc(Nc4cc5cn[nH]c5cc4OCCN)c23)C1` [Example 131, [(7S)-4-{[6-(2-Aminoethoxy)-1H-indazol-5-yl]amino}-5,6,7,8-tetrahydro[1]benzothieno[2,3-d]pyrimidin-7-yl][(3S)-3-methylmorpholin-4-yl]methanone]: 0.4 nM.
Still for that read-out and setting: next, `CCOc1cc2[nH]ncc2cc1Nc1ncnc2sc3c(c12)CC[C@H](C(=O)N(CCO)CCO)C3` [Example 77, (7S)-4-[(6-Ethoxy-1H-indazol-5-yl)amino]-N,N-bis(2-hydroxyethyl)-5,6,7,8-tetrahydro[1]benzothieno[2,3-d]pyrimidine-7-carboxamide]: 0.1 nM; `CSc1cc2[nH]ncc2cc1Nc1ncnc2sc3c(c12)CC[C@H](C(=O)N1CCOC[C@@H]1C)C3` [Example 254, [(3S)-3-Methylmorpholin-4-yl][(7S)-4-{[6-(methylsulfanyl)-1H-indazol-5-yl]amino}-5,6,7,8-tetrahydro[1]benzothieno[2,3-d]pyrimidin-7-yl]methanone]: 1.3 nM; `COc1cc2[nH]ncc2cc1Nc1ncnc2sc3c(c12)CC[C@H](C(=O)N1CCCCO1)C3` [Example 212, {(7S)-4-[(6-Methoxy-1H-indazol-5-yl)amino]-5,6,7,8-tetrahydro[1]benzothieno[2,3-d]pyrimidin-7-yl}(1,2-oxazinan-2-yl)methanone]: 0.3 nM.
For `CN(C)C(=O)[C@H]1CCc2c(sc3ncnc(Nc4cc5cn[nH]c5cc4OCCCN4CCCC4)c23)C1` [Example 277, (7S)—N,N-Dimethyl-4-({6-[3-(pyrrolidin-1-yl)propoxy]-1H-indazol-5-yl}amino)-5,6,7,8-tetrahydro[1]benzothieno[2,3-d]pyrimidine-7-carboxamide], the half-inhibitory concentration (IC50) was found to be 59.2 nM.
The same measure, in the same setting: the figure for `C[C@@H](N)COc1cc2[nH]ncc2cc1Nc1ncnc2sc3c(c12)CC[C@H](C(=O)N1CCOC[C@@H]1C)C3` [Example 149, {(7S)-4-[(6-{[(2R)-2-Aminopropyl]oxy}-1H-indazol-5-yl)amino]-5,6,7,8-tetrahydro[1]benzothieno[2,3-d]pyrimidin-7-yl}[(3S)-3-methylmorpholin-4-yl]methanone] is 5.2 nM.
On the same count and under the same terms, the figure for `CC(C)Oc1cc2[nH]ncc2c(F)c1Nc1ncnc2sc3c(c12)CC[C@H](C(=O)N(C)C)C3` [Example 129, (7S)-4-{[4-Fluoro-6-(propan-2-yloxy)-1H-indazol-5-yl]amino}-N,N-dimethyl-5,6,7,8-tetrahydro[1]benzothieno[2,3-d]pyrimidine-7-carboxamide] is 8.9 nM.
As to `CN(CC(F)(F)F)C(=O)[C@H]1CCc2c(sc3ncnc(Nc4ccc5[nH]ncc5c4)c23)C1` [Example 5, (7S)-4-(1H-Indazol-5-ylamino)-N-methyl-N-(2,2,2-trifluoroethyl)-5,6,7,8-tetrahydro[1]benzothieno[2,3-d]pyrimidine-7-carboxamide], the IC50 worked out at 18.3 nM.
For `CC(C)Oc1cc2[nH]ncc2cc1Nc1ncnc2sc3c(c12)CC[C@H](C(=O)N(CCO)CCO)C3` [Example 91, (7S)—N,N-bis(2-Hydroxyethyl)-4-{[6-(propan-2-yloxy)-1H-indazol-5-yl]amino}-5,6,7,8-tetrahydro[1]benzothieno[2,3-d]pyrimidine-7-carboxamide], the IC50 turned out to be 0.1 nM.
For the molecule `CCN(C)C(=O)[C@H]1CCc2c(sc3ncnc(Nc4cc5cn[nH]c5cc4N4CCC(N(C)C)CC4)c23)C1` [Example 158, (7S)-4-({6-[4-(Dimethylamino)piperidin-1-yl]-1H-indazol-5-yl}amino)-N-ethyl-N-methyl-5,6,7,8-tetrahydro[1]benzothieno[2,3-d]pyrimidine-7-carboxamide], the IC50 is 10 nM.
As to `CN(C)C(=O)[C@H]1CCc2c(sc3ncnc(Nc4cc5cn[nH]c5cc4N4CCC4)c23)C1` [Example 102, (7S)-4-{[6-(Azetidin-1-yl)-1H-indazol-5-yl]amino}-N,N-dimethyl-5,6,7,8-tetrahydro[1]benzothieno[2,3-d]pyrimidine-7-carboxamide], the 50% inhibitory concentration (IC50) came to 24.5 nM.
With `COCCN(CCO)C(=O)[C@H]1CCc2c(sc3ncnc(Nc4cc5cn[nH]c5cc4OC)c23)C1` [Example 42, (7S)—N-(2-Hydroxyethyl)-N-(2-methoxyethyl)-4-[(6-methoxy-1H-indazol-5-yl)amino]-5,6,7,8-tetrahydro[1]benzothieno[2,3-d]pyrimidine-7-carboxamide], the IC50 is 0.3 nM.
On to `CC(C)Oc1cc2[nH]ncc2cc1Nc1ncnc2sc3c(c12)CC[C@H](C(=O)N(C)CCO)C3` [Example 90, (7S)—N-(2-Hydroxyethyl)-N-methyl-4-{[6-(propan-2-yloxy)-1H-indazol-5-yl]amino}-5,6,7,8-tetrahydro[1]benzothieno[2,3-d]pyrimidine-7-carboxamide], for which the IC50 amounted to 0.6 nM.
In the case of `CN1CCN(C(=O)[C@@H]2CCc3c(sc4ncnc(Nc5ccc6[nH]ncc6c5)c34)C2)CC1` [Example 15, [(7R)-4-(1H-Indazol-5-ylamino)-5,6,7,8-tetrahydro[1]benzothieno[2,3-d]pyrimidin-7-yl](4-methylpiperazin-1-yl)methanone], the IC50 amounted to 88.5 nM.

The experiment is the same for the next values; noted with them: Table 2; ratio of the IC50-value of an R-enantiomer and its corresponding S-enantiomer.
Take `CC(C)Oc1cc2[nH]ncc2cc1Nc1ncnc2sc3c(c12)CC[C@H](C(=O)N1CC2(COC2)C1)C3` [Example 88, 2-Oxa-6-azaspiro[3.3]hept-6-yl[(7S)-4-{[6-(propan-2-yloxy)-1H-indazol-5-yl]amino}-5,6,7,8-tetrahydro[1]benzothieno[2,3-d]pyrimidin-7-yl]methanone]: the “Activity-Ratio MKNK1” value turned out to be 15.0.
For the molecule `COCCN(CCO)C(=O)[C@H]1CCc2c(sc3ncnc(Nc4cc5cn[nH]c5cc4OC)c23)C1` [Example 42, (7S)—N-(2-Hydroxyethyl)-N-(2-methoxyethyl)-4-[(6-methoxy-1H-indazol-5-yl)amino]-5,6,7,8-tetrahydro[1]benzothieno[2,3-d]pyrimidine-7-carboxamide], the “Activity-Ratio MKNK1” value turned out to be 33.2.

Usually IC50 stands for the concentration needed to halve the response being measured.
